Results: patent publication US20200354404A1, “PEPT[…], […] AND USES THEREOF” (priority 2019, published 2020)
Where “and” joins values, the source holds several entries; their conditions need not be identical. Identical values can stand only once. Like-named read-outs stand apart in the source and are kept apart here. Where no end group is shown, it is not given here.

Tests used:
[1] = Stability of endomorphin-2 in mouse serum; assay type: in vitro ADME; settings: read-out: amount (AUC O.D.254) in mouse serum less than amount originally placed
Text: In addition, as the result of the rapid hydrolysis and enzymatic degradation, a number of peptides are not stable enough to be used in drug discovery, diagnosis, prevention and treatment of diseases.
A graph of stability of EM2 and K763 in mice serum is depicted in FIG. 11.

in vitro [2] = settings: mouse, mouse serum
[3] = Animal studies (protection); settings: in vivo
[4] = cited from earlier work
in vivo = settings: male, Sprague-Dawley, rat, 1 mg/kg; for AUC(0-t): AUClast; for AUC(0-t) / MRT last: iv 1 mg/kg; for MRT last: MRTlast
OPRM-1 receptor = OPRM-1 receptor (Homo sapiens, UniProt P35372); assay: Binding to OPRM-1; settings: FIG. 10
Text: FIG. 10 are graphs depicting binding of K763 and Endomorphin-2 binding to OPRM-1.
The binding is depicted in FIG. 10.

mice = assay: APAP-induced cytokines, liver enzymes and lethality in mice; assay type: in vivo
[5] = tested on: HMGB1-induced TNF secretion; assay: HMGB1-induced TNF secretion; assay type: cell-based; settings: FIG. 7
[6] = iv 1 mg/kg
IRTK = IRTK (Homo sapiens, UniProt P06213); settings: Kato et al. 2009; cited from earlier work
in vitro [7] = settings: mouse, serum
Method: Stability of Bradykinin amide and (1-9)-Aza-Bradykinin in serum was measured.

Chain of OPRM-1 receptor (P35372 whole entry): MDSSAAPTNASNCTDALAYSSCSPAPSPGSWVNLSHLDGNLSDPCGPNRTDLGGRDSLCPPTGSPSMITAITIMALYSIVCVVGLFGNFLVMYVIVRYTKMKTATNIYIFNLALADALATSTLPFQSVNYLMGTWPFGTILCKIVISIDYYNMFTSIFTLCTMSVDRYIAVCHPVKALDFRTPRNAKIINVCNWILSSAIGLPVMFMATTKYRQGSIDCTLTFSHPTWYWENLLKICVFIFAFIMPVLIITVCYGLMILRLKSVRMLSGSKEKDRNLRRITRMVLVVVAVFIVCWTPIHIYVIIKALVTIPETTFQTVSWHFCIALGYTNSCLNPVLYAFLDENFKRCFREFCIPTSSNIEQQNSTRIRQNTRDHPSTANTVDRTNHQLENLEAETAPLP
Chain of IRTK (P06213 28-1382): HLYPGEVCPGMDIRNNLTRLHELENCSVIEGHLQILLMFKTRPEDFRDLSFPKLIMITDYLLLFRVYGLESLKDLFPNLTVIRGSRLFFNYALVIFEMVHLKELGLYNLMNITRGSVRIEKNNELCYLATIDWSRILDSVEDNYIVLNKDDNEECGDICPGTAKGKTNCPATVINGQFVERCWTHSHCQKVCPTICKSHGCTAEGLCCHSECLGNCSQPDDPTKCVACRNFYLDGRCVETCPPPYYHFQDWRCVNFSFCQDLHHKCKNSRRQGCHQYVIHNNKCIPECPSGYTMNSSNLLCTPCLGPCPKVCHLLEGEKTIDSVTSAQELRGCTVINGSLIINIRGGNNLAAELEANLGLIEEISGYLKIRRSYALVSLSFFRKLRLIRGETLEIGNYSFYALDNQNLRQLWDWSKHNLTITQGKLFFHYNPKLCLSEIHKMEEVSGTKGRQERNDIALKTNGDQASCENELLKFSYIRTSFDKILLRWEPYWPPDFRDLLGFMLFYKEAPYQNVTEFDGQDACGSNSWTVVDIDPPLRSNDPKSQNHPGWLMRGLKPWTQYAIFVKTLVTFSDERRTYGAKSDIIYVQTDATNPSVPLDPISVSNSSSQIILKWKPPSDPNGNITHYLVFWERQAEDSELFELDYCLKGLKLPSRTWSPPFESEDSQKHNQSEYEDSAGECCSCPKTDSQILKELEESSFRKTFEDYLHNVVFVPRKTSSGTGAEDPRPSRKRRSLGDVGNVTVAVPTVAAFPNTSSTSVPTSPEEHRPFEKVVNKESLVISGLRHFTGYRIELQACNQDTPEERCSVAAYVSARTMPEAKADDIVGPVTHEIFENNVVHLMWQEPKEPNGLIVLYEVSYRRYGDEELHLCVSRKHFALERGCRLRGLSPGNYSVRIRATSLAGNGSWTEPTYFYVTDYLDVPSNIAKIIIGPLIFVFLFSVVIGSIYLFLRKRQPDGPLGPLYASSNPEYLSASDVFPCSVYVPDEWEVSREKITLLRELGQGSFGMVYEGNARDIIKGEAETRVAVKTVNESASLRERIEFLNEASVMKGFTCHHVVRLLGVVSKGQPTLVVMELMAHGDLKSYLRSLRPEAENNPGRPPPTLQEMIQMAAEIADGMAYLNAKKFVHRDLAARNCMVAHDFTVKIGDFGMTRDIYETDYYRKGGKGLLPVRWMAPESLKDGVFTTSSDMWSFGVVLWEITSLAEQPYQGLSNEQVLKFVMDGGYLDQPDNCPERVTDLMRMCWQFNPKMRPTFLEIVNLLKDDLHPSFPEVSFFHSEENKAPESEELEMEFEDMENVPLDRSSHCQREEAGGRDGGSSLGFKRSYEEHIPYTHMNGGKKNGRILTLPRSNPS

## NC(=O)C(Cc1ccccc1)NC(=O)C(Cc1ccccc1)NC(=O)[C@@H]1CCCN1C(=O)C(N)Cc1ccc(O)cc1 (stereo partly drawn) [Endomorphin-2]
[1]
  metabolised at 2 h: ~95%

## N[C@@H](Cc1ccccc1)C(=O)N[C@@H](CO)C(=O)N[C@@H](CO)C(=O)N[C@@H](CCC(=O)O)C(=O)O [FSSE, reference compound]
In vitro [2]
  half-life: 60 min
[3]
  protection in animal studies (in words): protective
[4]; in vivo
  in vivo half-life: less than 5 minutes
In vivo
  half-life: < 1 min

## NC(=O)N(Cc1ccccc1)NC(=O)N(Cc1ccccc1)NC(=O)[C@@H]1CCCN1C(=O)N(N)Cc1ccc(O)cc1 [K763]
OPRM-1 receptor
  affinity for OPRM-1 compared with Endomorphin-2 (in words): stronger affinity than Endomorphin-2
  binding to OPRM-1 receptor (in words): shown to bind

## NC(=O)N(CCC(=O)O)NC(=O)[C@H](CO)NC(=O)[C@H](CO)NC(=O)N(N)Cc1ccccc1 [K883]
In vitro [2]
  half-life: > 900 min
[3]
  protection in animal studies (in words): protective
mice; FIG. 8
  APAP-induced pro-inflammatory cytokines (in words): reduction
  APAP-induced serum liver enzymes (in words): reduction
mice; FIG. 9
  APAP-induced lethality in mice (in words): reduced
[5]
  HMGB1-induced TNF secretion (in words): inhibits
[6]; 0.50 hr, individual rats, 1 mg/kg
  Plasma concentration: 3020 ng/mL and 2500 ng/mL and 3220 ng/mL
[6]; 1.0 hr, individual rats, 1 mg/kg
  Plasma concentration: 814 ng/mL and 1160 ng/mL and 1300 ng/mL
[6]; 2.0 hr, individual rats, 1 mg/kg
  Plasma concentration: 133 ng/mL and 130 ng/mL and 142 ng/mL
[6]; 4.0 hr, individual rats, 1 mg/kg
  Plasma concentration: 17.0 ng/mL and 15.1 ng/mL and 17.1 ng/mL
[6]; 6.0 hr, individual rats, 1 mg/kg
  Plasma concentration: 6.49 ng/mL and 4.04 ng/mL and 4.77 ng/mL
[6]; 8.0 hr, individual rats, 1 mg/kg
  Plasma concentration: 2.0 ng/mL and 0.871 ng/mL and 1.68 ng/mL
[6]; individual rats
  tmax: 0 h
[6]; individual rats, 1 mg/kg
  AUClast: 3807 ng·h/mL and 3749 ng·h/mL
[6]; mean of 3 rats
  tmax, Mean: 0 h
In vivo; in vivo half-life
  half-life: > 69 min
In vivo; iv
  level at 0.5 h: 2910 ng/mL
  level at 1 h: 1090 ng/mL
  level at 2 h: 135 ng/mL
  level at 4 h: 16.6 ng/mL
  level at 6 h: 5.1 ng/mL
  level at 8 h: 1.52 ng/mL
In vivo; iv, Mean, mean of 3 rats
  AUC(0-t): 3780 ng·h/mL
  MRT last: 33.4 min
In vivo; iv, individual rats
  AUC(0-t): 3770 ng·h/mL
  MRT last: 32.1 min

## Ac-Asp1-Ile2-Tyr3-Glu4-Thr5-NH2
IRTK
  IRTK phosphorylation (in words): inhibit

## RPPGFSPFR [bradykinin]
[4]; background statement
  in vivo half-life: less than 1 minutes
In vitro [7]
  metabolised at 3 h: ~97%
